Reference: patent US20060263444A1, “Antimicrobial composition” (priority 2005, published 2006)
Where “and” joins values, the source holds several entries; their conditions need not be identical. Identical values can stand only once. Like-named read-outs stand apart in the source and are kept apart here.

Assays:
[1] = system: S. aureus; experiment: Zone of inhibition assay of coated sutures; type: cell-based, Staphylococcus aureus; conditions: coated 2-0 polyglactin 910 suture; 0.5% in coating solution; 37° C. 48 hr
Description: (§1) The coating solutions were made by dissolving a L(−) lactide/glycolide copolymer containing 65 mole % lactide and 35 mole % glycolide (4.5%) and calcium stearate (4.5%) in ethyl acetate. […] The sutures were hand coated by dipping into the coating solution containing antimicrobial composition and then air dried at room temperature for 8 hr. […] A Petri dish was inoculated with about 10^5 cfu/suture and a portion of 20 ml of TSA tempered at 47° C. was added into the Petri dish. The inoculum was mixed thoroughly with the medium and the suture was placed in the middle of the Petri dish. The inoculated Petri dishes were incubated at 37° C. for 48 hr and then the zone of inhibition was measured with a digital caliper.
(§2) The zone of inhibition assay was performed against S. aureus and E. coli over a two-day period.

[2] = rats; cited from earlier work
[3] = system: E. coli; experiment: Zone of inhibition assay of coated sutures; type: cell-based; conditions: coated suture; 0.5% in coating solution; 37° C. 48 hr
Description: as §1, §2

[4] = system: C. albicans; experiment: Zone of inhibition assay of coated sutures; type: cell-based; conditions: coated suture; 0.5% in coating solution; 37° C. 48 hr
[5] = system: Staphylococcus aureus, E. coli and C. albicans; experiment: Zone of inhibition assay of coated sutures, summary in text; type: cell-based; conditions: coated suture
Description: as §1, §2

[6] = system: C. albicans; experiment: Viable plate count after 24 hr incubation in trypticase soy broth culture; type: cell-based
Description: (§3) Sequential dilutions of the above two stock solutions were then prepared also in sterile saline. A portion of 0.05 ml of each dilution was added to 0.95 ml of bacterial culture (trypticase soy broth containing 10^6 CFU/ml). […] The test cultures were incubated at 37° C. for 24 hr, the total viable bacteria were numerated by plate count on Trypticase® soy agar (BBL) containing inactivating agent. The plates were incubated at 37° C. for 48 hr and reported as colony forming unit/ml (CFU/ml).

[7] = system: P. aeruginosa; experiment: as above; type: cell-based
Description: as §3

[8] = system: E. coli; experiment: as above; type: cell-based
Description: as §3

[9] = system: E. faecium; experiment: as above; type: cell-based
Description: as §3

[10] = system: S. aureus; type: cell-based
Description: as §3

[11] = animals and humans; cited from earlier work
[12] = single agent 10 ppm, 37° C. 24 hr

SMILES	Zone of inhibition(mm) S. aureus [1] [mm]	absorption and metabolism [2]	Zone of inhibition(mm) E. coli [3] [mm]	Zone of inhibition(mm) C. albicans [4] [mm]	zone of inhibition [5]	reduction of viable bacteria compared to the control, C. albicans ([6]; alone at 10 ppm) [log]	CFU/ml C. albicans [6, 12]	reduction of viable bacteria compared to the control, P. aeruginosa ([7]; alone at 10 ppm)	CFU/ml P. aeruginosa [7, 12]	reduction of viable bacteria compared to the control, E. coli [8]	CFU/ml E. coli ([8]; monohydrochloride)	reduction of viable bacteria compared to the control, E. faecium ([9]; alone at 10 ppm) [log]	CFU/ml E. faecium [9, 12]	CFU/ml S. aureus [10]	toxicological finding [11]	CFU/ml E. coli ([8]; Table 2, single agent 10 ppm)	CFU/ml E. coli ([8]; Table 2, single agent 20 ppm)	CFU/ml S. aureus ([10]; Table 2, single agent 10 ppm)	CFU/ml S. aureus ([10]; Table 2, single agent 20 ppm)
CCCCCCCCCCCC(=O)N[C@@H](CCCN=C(N)N)C(=O)OCC.Cl [LAE, ethyl ester of the lauramide of the arginine monohydrochloride]	0	fast absorption and metabolism into naturally-occurring amino acids and the lauric acid	0	0	no zones of inhibition	< 2	6.0 × 10^7 CFU/ml	no inhibition	1.0 × 10^9 CFU/ml	no inhibition	1.0 × 10^9 CFU/ml and 1.1 × 10^9 CFU/ml	< 2	5.0 × 10^7 CFU/ml	6.4 × 10^8 CFU/ml	completely harmless to animals and humans				
O=[N+]([O-])[O-].[Ag+] [AgNO3, silver nitrate]																1.2 × 10^9 CFU/ml	1.0 × 10^8 CFU/ml	9.3 × 10^8 CFU/ml	2.2 × 10^8 CFU/ml
